The text below walks through data of patent US7951815B2, “Substituted 1,4,8-triazaspiro [4,5]decan-2-one compounds” (Gruenenthal GmbH, priority 2004, dated 2011).

Each structure is given as a SMILES string. Read-outs that look alike come from different tables or passages of the source.

Assay [1] deals with batrachotoxin (BTX) binding site of the sodium channel. As to the kind of experiment: Affinity to the batrachotoxin (BTX) binding site of the sodium channel. To be noted: rat cerebrocortex synaptosomes, test concentration not given.
The next assay has as its target T1, 5-HT transporter (Rattus norvegicus, UniProt P31652).
T1 construct: synaptosomes of rat brain areas are freshly isolated; from tissue; host or cells: rat brain synaptosomes (P2 fraction) from marrow and pons
The experiment in a line: Inhibition of 5-HT uptake in rat brain synaptosomes. In kind it is biochemical. To be noted: read-out: Uptake 5-HT, % inhibition, rat, 1 μM.

T1 sequence (P31652 whole entry): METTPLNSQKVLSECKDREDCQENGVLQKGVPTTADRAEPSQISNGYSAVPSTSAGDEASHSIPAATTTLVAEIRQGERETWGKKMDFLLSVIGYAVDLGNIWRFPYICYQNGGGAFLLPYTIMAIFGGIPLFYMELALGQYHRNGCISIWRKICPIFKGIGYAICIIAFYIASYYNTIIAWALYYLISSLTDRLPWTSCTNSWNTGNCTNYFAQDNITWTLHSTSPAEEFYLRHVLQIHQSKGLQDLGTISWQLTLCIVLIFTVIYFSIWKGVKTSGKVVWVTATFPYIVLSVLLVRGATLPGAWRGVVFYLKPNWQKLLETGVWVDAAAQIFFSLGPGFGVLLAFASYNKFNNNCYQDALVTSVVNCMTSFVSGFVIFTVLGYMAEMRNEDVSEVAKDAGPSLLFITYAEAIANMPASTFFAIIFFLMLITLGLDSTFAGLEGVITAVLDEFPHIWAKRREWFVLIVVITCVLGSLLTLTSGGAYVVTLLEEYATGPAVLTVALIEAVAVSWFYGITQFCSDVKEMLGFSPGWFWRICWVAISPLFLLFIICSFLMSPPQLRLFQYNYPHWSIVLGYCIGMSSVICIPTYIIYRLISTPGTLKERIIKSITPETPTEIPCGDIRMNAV

Broadly, the inhibition is the percentage by which the read-out fell short of the control. Compound `CCOC(=O)CN1C(=O)C(Cc2ccccc2)NC12CCN(C(=O)COCc1ccccc1)CC2` (centres unmarked) [Example 329, Ethyl [3-benzyl-8-(2-benzyloxyacetyl)-2-oxo-1,4,8-triazaspiro[4,5]dec-1-yl]acetate] gave a BTX inhibition in assay [1] (Table III) of 43. The inhibition at 1 µM at 5-HT transporter (Table III) was 55%.
Compound `CCCCCC(=O)N1CCC2(CC1)NC(C(C)C)C(=O)N2CCCC` (centres unmarked) [Example 129, 1-Butyl-8-hexanoyl-3-isopropyl-1,4,8-triazaspiro[4,5]decan-2-one] returned a BTX inhibition in assay [1] (Table III) of 30. In addition, the inhibition at 1 µM on 5-HT transporter (Table III) stood at 47%.
Consider `CSCCC1NC2(CCN(C(=O)c3cccc(OC(F)(F)F)c3)CC2)N(Cc2cccc(C#N)c2)C1=O` (centres unmarked) [Example 200, 3-[3-(2-Methylsulfanylethyl)-2-oxo-8-(3-trifluoromethoxybenzoyl)-1,4,8-triazaspiro[4,5]dec-1-ylmethyl]benzonitrile], for which the BTX inhibition in assay [1] (Table III) was found to be 44. For the same compound, the inhibition at 1 µM at 5-HT transporter (Table III) turned out to be 45%.
For `CC(C)C1NC2(CCN(C(=O)c3ccccc3C(=O)OCc3ccccc3)CC2)N(Cc2ccccc2)C1=O` (centres unmarked) [Example 236, Benzyl 2-(1-benzyl-3-isopropyl-2-oxo-1,4,8-triazaspiro[4,5]decan-8-carbonyl)benzoate] the same measures were 50 and 48%.
In assay [1] (Table III), `COC(=O)c1ccc(CN2C(=O)C(C(C)C)NC23CCN(C(=O)c2ccc(C(F)(F)F)c(F)c2)CC3)cc1` (centres unmarked) [Example 204, Methyl 4-[8-(3-fluoro-4-trifluoromethylbenzoyl)-3-isopropyl-2-oxo-1,4,8-triazaspiro[4,5]dec-1-ylmethyl]benzoate] gave a BTX inhibition of 44. For the same compound, the inhibition at 1 µM on 5-HT transporter (Table III) was 42%.
In assay [1] (Table III), `Cc1nnsc1C(=O)N1CCC2(CC1)NC(Cc1ccccc1)C(=O)N2Cc1ccccc1` (centres unmarked) [Example 177, 1,3-Dibenzyl-8-(4-methyl[1,2,3]thiadiazole-5-carbonyl)-1,4,8-triazaspiro[4,5]decan-2-one] gave a BTX inhibition of 30. Further, the inhibition at 1 µM at 5-HT transporter (Table III) turned out to be 79%.
For `C=CCN1C(=O)C(CCSC)NC12CCN(C(=O)c1cc(C(C)(C)C)nn1C)CC2` (centres unmarked) [Example 330, 1-Allyl-8-(5-tert-butyl-2-methyl-2H-pyrazole-3-carbonyl)-3-(2-methylsulfanylethyl)-1,4,8-triazaspiro[4,5]decan-2-one], in that order: 31 and 45%.
For `Cc1onc(-c2c(F)cccc2Cl)c1C(=O)N1CCC2(CC1)NC(=O)C(C(C)C)N2` (centres unmarked) [Example 149, 8-[3-(2-Chloro-6-fluorophenyl)-5-methylisoxazole-4-carbonyl]-3-isopropyl-1,4,8-triazaspiro[4,5]decan-2-one] the same measures were 33 and 33%.
`Cl.O=C(c1ccc(F)cc1)N1CCC2(CC1)N[C@@H](Cc1ccccc1)C(=O)N2Cc1ccccc1` [Example 62, 1,3-(S)-dibenzyl-8-(4-fluorobenzoyl)-1,4,8-triazaspiro[4,5]decan-2-one hydrochloride] came in with a BTX inhibition in assay [1] (Table II) of 48. On 5-HT transporter (Table II), the inhibition at 1 µM stood at 87%.
For the compound `CCCCN1C(=O)C(Cc2ccccc2)NC12CCN(C(=O)CCC1CCCC1)CC2` (centres unmarked) [Example 188, 3-Benzyl-1-butyl-8-(3-cyclopentylpropionyl)-1,4,8-triazaspiro[4,5]decan-2-one], the BTX inhibition in assay [1] (Table III) is listed as 69. In addition, the inhibition at 1 µM on 5-HT transporter (Table III) is 70%.
As to `O=C(c1ccc(Br)cc1)N1CCC2(CC1)NC(Cc1ccccc1)C(=O)N2Cc1ccccc1` (centres unmarked) [Example 105, 1,3-Dibenzyl-8-(4-bromobenzoyl)-1,4,8-triazaspiro[4,5]decan-2-one], in assay [1] (Table III), the BTX inhibition turned out to be 66. Moreover, on 5-HT transporter (Table III), the inhibition at 1 µM stood at 68%.
Turning to `Cl.O=C(c1ccc2ccccc2c1)N1CCC2(CC1)N[C@@H](Cc1ccccc1)C(=O)N2Cc1ccccc1` [Example 59, 1,3-(S)-dibenzyl-8-(naphthalin-2-carbonyl)-1,4,8-triazaspiro[4,5]decan-2-one hydrochloride], the BTX inhibition in assay [1] (Table II) was 49. Besides, the inhibition at 1 µM at 5-HT transporter (Table II) was 53%.
As to `CC(C)CC1NC2(CCN(C(=O)c3ccc(-c4ccccc4)cc3)CC2)N(Cc2ccc(F)cc2)C1=O` (centres unmarked) [Example 101, 8-(Biphenyl-4-carbonyl)-1-(4-fluorobenzyl)-3-isobutyl-1,4,8-triazaspiro[4,5]decan-2-one], in assay [1] (Table III), the BTX inhibition turned out to be 78. The inhibition at 1 µM on 5-HT transporter (Table III) amounted to 33%.
For `CC(C)CC1NC2(CCN(C(=O)c3ccc4nonc4c3)CC2)N(Cc2c(Cl)cccc2Cl)C1=O` (centres unmarked) [Example 275, 8-(Benzo[1,2,5]oxadiazole-5-carbonyl)-1-(2,6-dichlorobenzyl)-3-isobutyl-1,4,8-triazaspiro[4,5]decan-2-one], the BTX inhibition in assay [1] (Table III) turned out to be 61. Further, on 5-HT transporter (Table III), the inhibition at 1 µM stood at 33%.
For `CCCCN1C(=O)C(Cc2ccccc2)NC12CCN(C(=O)c1cc(C(C)(C)C)nn1C)CC2` (centres unmarked) [Example 249, 3-Benzyl-1-butyl-8-(5-tert-butyl-2-methyl-2H-pyrazole-3-carbonyl)-1,4,8-triazaspiro[4,5]decan-2-one], the BTX inhibition in assay [1] (Table III) is given as 34. Moreover, the inhibition at 1 µM at 5-HT transporter (Table III) is 55%.
Compound `Cl.O=C1[C@H](Cc2ccccc2)NC2(CCNCC2)N1Cc1ccccc1` [Example 38, 1,3-(S)-Dibenzyl-1,4,8-triazaspiro[4,5]decan-2-one hydrochloride] came in with a BTX inhibition in assay [1] (Table II) of 87. Further, the inhibition at 1 µM at 5-HT transporter (Table II) worked out at 94%.
For `Cc1onc(-c2c(F)cccc2Cl)c1C(=O)N1CCC2(CC1)NC(C(C)C)C(=O)N2CCOc1ccccc1` (centres unmarked) [Example 131, 8-[3-(2-Chloro-6-fluorophenyl)-5-methylisoxazole-4-carbonyl]-3-isopropyl-1-(2-phenoxyethyl)-1,4,8-triazaspiro[4,5]decan-2-one], the BTX inhibition in assay [1] (Table III) came to 37.
Same read-out and setting: the figure for `CC(C)CC1NC2(CCN(C(=O)CCC3CCCC3)CC2)N(Cc2ccccc2F)C1=O` (centres unmarked) [Example 220, 8-(3-Cyclopentylpropionyl)-1-(2-fluorobenzyl)-3-isobutyl-1,4,8-triazaspiro[4,5]decan-2-one] is 62.
The same measure, in the same setting: in the case of `O=C(c1ccc(-c2ccccc2)cc1)N1CCC2(CC1)NCC(=O)N2Cc1ccccc1` [Example 72, 1-Benzyl-8-(biphenyl-4-carbonyl)-1,4,8-triazaspiro[4,5]decan-2-one] it was 39; in that of `CCOC(=O)CN1C(=O)C(CCSC)NC12CCN(C(=O)c1ccc(C(F)(F)F)cc1)CC2` (centres unmarked) [Example 322, Ethyl [3-(2-methylsulfanylethyl)-2-oxo-8-(4-trifluoromethylbenzoyl)-1,4,8-triazaspiro[4,5]dec-1-yl]acetate], 36; in that of `C=CCN1C(=O)C(CCSC)NC12CCN(C(=O)c1c(F)c(F)c(F)c(F)c1F)CC2` (centres unmarked) [Example 302, 1-Allyl-3-(2-methylsulfanylethyl)-8-pentafluorobenzoyl-1,4,8-triazaspiro[4,5]decan-2-one], 39.
`CSCCC1NC2(CCN(C(=O)c3cccc(N(C)C)c3)CC2)N(Cc2cc(C)cc(C)c2)C1=O` (centres unmarked) [Example 137, 8-(3-Dimethylaminobenzoyl)-1-(3,5-dimethylbenzyl)-3-(2-methylsulfanylethyl)-1,4,8-triazaspiro[4,5]decan-2-one]: the BTX inhibition in assay [1] (Table III) is reported as 59.
Same read-out and setting: the figure for `COC(=O)c1ccc(CN2C(=O)C(C(C)C)NC23CCN(C(=O)CC(C)(C)C)CC3)cc1` (centres unmarked) [Example 198, Methyl 4-[8-(3,3-dimethylbutyryl)-3-isopropyl-2-oxo-1,4,8-triazaspiro[4,5]dec-1-ylmethyl]benzoate] is 30; for `C#CCN1C(=O)C(CCSC)NC12CCN(C(=O)c1ccc(-c3ccccc3)cc1)CC2` (centres unmarked) [Example 213, 8-(Biphenyl-4-carbonyl)-3-(2-methylsulfanylethyl)-1-prop-2-ynyl-1,4,8-triazaspiro[4,5]decan-2-one] it is 43.
Still for that read-out and setting: in the case of `CN1C(=O)C(Cc2ccccc2)NC12CCN(C(=O)C1COc3ccc(Cl)cc3C1)CC2` (centres unmarked) [Example 242, 3-Benzyl-8-(6-chloro-2H-chroman-3-carbonyl)-1-methyl-1,4,8-triazaspiro[4,5]decan-2-one] it was 42; in that of `CSCCC1NC2(CCN(C(=O)c3c(-c4c(F)cccc4Cl)noc3C)CC2)N(Cc2cccc(C#N)c2)C1=O` (centres unmarked) [Example 181, 3-[8-[3-(2-Chloro-6-fluorophenyl)-5-methylisoxazole-4-carbonyl]-3-(2-methylsulfanylethyl)-2-oxo-1,4,8-triazaspiro[4,5]dec-1-ylmethyl]benzonitrile], 43; in that of `Cc1oc(C(C)(C)C)cc1C(=O)N1CCC2(CC1)NC(C(C)C)C(=O)N2CCOc1ccccc1` (centres unmarked) [Example 196, 8-(5-tert-Butyl-2-methylfuran-3-carbonyl)-3-isopropyl-1-(2-phenoxyethyl)-1,4,8-triazaspiro[4,5]decan-2-one], 52.
In turn, `CC(C)C1NC2(CCN(C(=O)COc3cccc(Cl)c3)CC2)N(CCOc2ccccc2)C1=O` (centres unmarked) [Example 165, 8-[2-(3-Chlorophenoxy)acetyl]-3-isopropyl-1-(2-phenoxyethyl)-1,4,8-triazaspiro[4,5]decan-2-one] registered a BTX inhibition in assay [1] (Table III) of 63.
On the same count and under the same terms, in the case of `Cc1cccc(C(=O)N2CCC3(CC2)NC(CC(C)C)C(=O)N3Cc2ccccc2F)c1` (centres unmarked) [Example 132, 1-(2-Fluorobenzyl)-3-isobutyl-8-(3-methylbenzoyl)-1,4,8-triazaspiro[4,5]decan-2-one] it was 54; in that of `CCOc1ccc(C(=O)N2CCC3(CC2)NC(CC(C)C)C(=O)N3Cc2ccccc2)cc1` (centres unmarked) [Example 179, 1-Benzyl-8-(4-ethoxybenzoyl)-3-isobutyl-1,4,8-triazaspiro[4,5]decan-2-one], 46; in that of `COC(=O)c1ccc(CN2C(=O)CNC23CCN(C(=O)c2snnc2C)CC3)cc1` [Example 258, Methyl 4-[8-(4-methyl[1,2,3]thiadiazole-5-carbonyl)-2-oxo-1,4,8-triazaspiro[4,5]dec-1-ylmethyl]benzoate], 32.
